This passage reports mass density results from the NIST ThermoML archive (doi:10.1016/j.fluid.2015.06.034).

Numbers after ± are expanded uncertainties.

This data set can be described thus: wn = mass fraction of the nth substance listed. The settings on record: Liquid, Vibrating tube method, w1 = 0.45.

Regarding `CN(CCO)CCO` [N-methyldiethanolamine] + O, the mass density is 1037.2 ± 5 kg/m3 (303.15 K), 1024.8 ± 5 kg/m3 (323.15 K), 1011.5 ± 5 kg/m3 (343.15 K) and 996.4 ± 5 kg/m3 (363.15 K).
